Tested on: 996289-038-R-J1-PDC complex spheroid viability
Assay: Anticancer human tumor 996289-038-R-J1-PDC patient-derived colon adenocarcinoma cell line growth inhibition [CLK]
Details: for IC50: curve of first compound; for viability, T/C: stronger effect = lower value
How it was run: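 Multi-cell-type spheroids combined patient-derived tumor cells with HUVEC endothelial cells and human mesenchymal stem cells. Paired agents were dosed in half-log steps down from about clinical Cmax, or from 10 microM where Cmax was unknown.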

[1] = second compound 0.0316 µM, first compound 0.0316 µM
[2] = second compound 0.0316 µM, first compound 0.1 µM
[3] = second compound 0.0316 µM, first compound 0.316 µM
[4] = second compound 0.0316 µM, first compound 1 µM
[5] = second compound 0.1 µM, first compound 0.0316 µM
[6] = second compound 0.1 µM, first compound 0.1 µM
[7] = second compound 0.1 µM, first compound 0.316 µM
[8] = second compound 0.1 µM, first compound 1 µM
[9] = second compound 0.316 µM, first compound 0.0316 µM
[10] = second compound 0.316 µM, first compound 0.1 µM
[11] = second compound 0.316 µM, first compound 0.316 µM
[12] = second compound 0.316 µM, first compound 1 µM
[13] = second compound 1 µM, first compound 0.0316 µM
[14] = second compound 1 µM, first compound 0.1 µM
[15] = second compound 1 µM, first compound 0.316 µM
[16] = second compound 1 µM, first compound 1 µM
[17] = second compound 3.16 µM, first compound 0.0316 µM
[18] = second compound 3.16 µM, first compound 0.1 µM
[19] = second compound 3.16 µM, first compound 0.316 µM
[20] = second compound 3.16 µM, first compound 1 µM
[21] = second compound 10 µM, first compound 0.0316 µM
[22] = second compound 10 µM, first compound 0.1 µM
[23] = second compound 10 µM, first compound 0.316 µM
[24] = second compound 10 µM, first compound 1 µM
[25] = second compound 0.0316 µM, first compound 0.00316 µM
[26] = second compound 0.0316 µM, first compound 0.01 µM
[27] = second compound 0.1 µM, first compound 0.00316 µM
[28] = second compound 0.1 µM, first compound 0.01 µM
[29] = second compound 0.316 µM, first compound 0.00316 µM
[30] = second compound 0.316 µM, first compound 0.01 µM
[31] = second compound 1 µM, first compound 0.00316 µM
[32] = second compound 1 µM, first compound 0.01 µM
[33] = second compound 3.16 µM, first compound 0.00316 µM
[34] = second compound 3.16 µM, first compound 0.01 µM
[35] = second compound 10 µM, first compound 0.00316 µM
[36] = second compound 10 µM, first compound 0.01 µM
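Also: spheroids exposed to the agents for 7 days before readout.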

C=CC(=O)Nc1cc(Nc2nccc(-c3cn(C)c4ccccc34)n2)c(OC)cc1N(C)CCN(C)C + CNC(=O)c1ccc(Nc2nc(OC3CCCC3)c3c(-c4ccc5nc(C)oc5c4)c[nH]c3n2)c(OC)c1
IC50 (second compound 0.0316 µM): > 300 nM
IC50 (second compound 0.1 µM): > 300 nM
IC50 (second compound 0.316 µM): > 300 nM
IC50 (second compound 1 µM): 137 nM
IC50 (second compound 3.16 µM): 91.8 nM
IC50 (second compound 10 µM): 56.9 nM
viability, T/C (second compound 0.0316 µM, first compound 0.000949 µM): 118%
viability, T/C (second compound 0.0316 µM, first compound 0.003 µM): 123%
viability, T/C (second compound 0.0316 µM, first compound 0.00949 µM): 112%
viability, T/C (second compound 0.0316 µM, first compound 0.03 µM): 117%
viability, T/C (second compound 0.0316 µM, first compound 0.0949 µM): 113%
viability, T/C (second compound 0.0316 µM, first compound 0.3 µM): 85.8%
viability, T/C (second compound 0.1 µM, first compound 0.000949 µM): 109%
viability, T/C (second compound 0.1 µM, first compound 0.003 µM): 124%
viability, T/C (second compound 0.1 µM, first compound 0.00949 µM): 106%
viability, T/C (second compound 0.1 µM, first compound 0.03 µM): 109%
viability, T/C (second compound 0.1 µM, first compound 0.0949 µM): 110%
viability, T/C (second compound 0.1 µM, first compound 0.3 µM): 77.4%
viability, T/C (second compound 0.316 µM, first compound 0.000949 µM): 74%
viability, T/C (second compound 0.316 µM, first compound 0.003 µM): 74.3%
viability, T/C (second compound 0.316 µM, first compound 0.00949 µM): 72.7%
viability, T/C (second compound 0.316 µM, first compound 0.03 µM): 69.4%
viability, T/C (second compound 0.316 µM, first compound 0.0949 µM): 68.8%
viability, T/C (second compound 0.316 µM, first compound 0.3 µM): 52.5%
viability, T/C (second compound 1 µM, first compound 0.000949 µM): 69.7%
viability, T/C (second compound 1 µM, first compound 0.003 µM): 67.5%
viability, T/C (second compound 1 µM, first compound 0.00949 µM): 62%
viability, T/C (second compound 1 µM, first compound 0.03 µM): 61.6%
viability, T/C (second compound 1 µM, first compound 0.0949 µM): 53.2%
viability, T/C (second compound 1 µM, first compound 0.3 µM): 43.1%
viability, T/C (second compound 3.16 µM, first compound 0.000949 µM): 64.2%
viability, T/C (second compound 3.16 µM, first compound 0.003 µM): 60.8%
viability, T/C (second compound 3.16 µM, first compound 0.00949 µM): 56.5%
viability, T/C (second compound 3.16 µM, first compound 0.03 µM): 53%
viability, T/C (second compound 3.16 µM, first compound 0.0949 µM): 53.1%
viability, T/C (second compound 3.16 µM, first compound 0.3 µM): 43.8%
viability, T/C (second compound 10 µM, first compound 0.000949 µM): 60.9%
viability, T/C (second compound 10 µM, first compound 0.003 µM): 55.9%
viability, T/C (second compound 10 µM, first compound 0.00949 µM): 55%
viability, T/C (second compound 10 µM, first compound 0.03 µM): 54.7%
viability, T/C (second compound 10 µM, first compound 0.0949 µM): 47.4%
viability, T/C (second compound 10 µM, first compound 0.3 µM): 38.2%

CC(Nc1ccc2c(c1)OCCn1cc(N3C(=O)OCC3C(F)F)nc1-2)C(N)=O (stereo not drawn) + CNC(=O)c1ccc(Nc2nc(OC3CCCC3)c3c(-c4ccc5nc(C)oc5c4)c[nH]c3n2)c(OC)c1
IC50 (second compound 0.0316 µM): > 10000 nM
IC50 (second compound 0.1 µM): 8750 nM
IC50 (second compound 0.316 µM): 655 nM
IC50 (second compound 1 µM): 45.3 nM
IC50 (second compound 3.16 µM): 48.9 nM
IC50 (second compound 10 µM): < 31.6 nM
viability, T/C [1]: 113%
viability, T/C [2]: 92.9%
viability, T/C [3]: 83.4%
viability, T/C [4]: 69.1%
viability, T/C (second compound 0.0316 µM, first compound 3.16 µM): 60.2%
viability, T/C (second compound 0.0316 µM, first compound 10 µM): 49.7%
viability, T/C [5]: 114%
viability, T/C [6]: 97.3%
viability, T/C [7]: 82.1%
viability, T/C [8]: 70.9%
viability, T/C (second compound 0.1 µM, first compound 3.16 µM): 61.1%
viability, T/C (second compound 0.1 µM, first compound 10 µM): 47.4%
viability, T/C [9]: 69.1%
viability, T/C [10]: 62.3%
viability, T/C [11]: 53%
viability, T/C [12]: 47.4%
viability, T/C (second compound 0.316 µM, first compound 3.16 µM): 42.2%
viability, T/C (second compound 0.316 µM, first compound 10 µM): 32.2%
viability, T/C [13]: 52.9%
viability, T/C [14]: 43.7%
viability, T/C [15]: 38.3%
viability, T/C [16]: 31.5%
viability, T/C (second compound 1 µM, first compound 3.16 µM): 29.2%
viability, T/C (second compound 1 µM, first compound 10 µM): 24.4%
viability, T/C [17]: 53.7%
viability, T/C [18]: 44.8%
viability, T/C [19]: 33.1%
viability, T/C [20]: 31.5%
viability, T/C (second compound 3.16 µM, first compound 3.16 µM): 25.4%
viability, T/C (second compound 3.16 µM, first compound 10 µM): 21.9%
viability, T/C [21]: 46.7%
viability, T/C [22]: 42.8%
viability, T/C [23]: 31.2%
viability, T/C [24]: 30.6%
viability, T/C (second compound 10 µM, first compound 3.16 µM): 27.1%
viability, T/C (second compound 10 µM, first compound 10 µM): 21.8%

CCN1CCN(Cc2ccc(Nc3ncc(F)c(-c4cc(F)c5nc(C)n(C(C)C)c5c4)n3)nc2)CC1 + CNC(=O)c1ccc(Nc2nc(OC3CCCC3)c3c(-c4ccc5nc(C)oc5c4)c[nH]c3n2)c(OC)c1
IC50 (second compound 0.0316 µM): > 1000 nM
IC50 (second compound 0.1 µM): > 1000 nM
IC50 (second compound 0.316 µM): > 1000 nM
IC50 (second compound 1 µM): > 1000 nM
IC50 (second compound 3.16 µM): > 1000 nM
IC50 (second compound 10 µM): > 1000 nM
viability, T/C [25]: 109%
viability, T/C [26]: 103%
viability, T/C [1]: 106%
viability, T/C [2]: 97.6%
viability, T/C [3]: 92.6%
viability, T/C [4]: 96.2%
viability, T/C [27]: 115%
viability, T/C [28]: 111%
viability, T/C [5]: 108%
viability, T/C [6]: 91.8%
viability, T/C [7]: 86.5%
viability, T/C [8]: 86.7%
viability, T/C [29]: 79%
viability, T/C [30]: 81.2%
viability, T/C [9]: 80.8%
viability, T/C [10]: 75%
viability, T/C [11]: 82.8%
viability, T/C [12]: 76.8%
viability, T/C [31]: 72.6%
viability, T/C [32]: 70.2%
viability, T/C [13]: 64.2%
viability, T/C [14]: 66.9%
viability, T/C [15]: 64.8%
viability, T/C [16]: 77.1%
viability, T/C [33]: 62.5%
viability, T/C [34]: 62.1%
viability, T/C [17]: 61.9%
viability, T/C [18]: 64.9%
viability, T/C [19]: 73.2%
viability, T/C [20]: 65.9%
viability, T/C [35]: 66%
viability, T/C [36]: 63.9%
viability, T/C [21]: 61.3%
viability, T/C [22]: 62.2%
viability, T/C [23]: 68.1%
viability, T/C [24]: 59.8%

COc1c(OCCCN2CCOCC2)ccc2c3n(c(=NC(=O)c4cnc(N)nc4)nc12)CCN3 + CNC(=O)c1ccc(Nc2nc(OC3CCCC3)c3c(-c4ccc5nc(C)oc5c4)c[nH]c3n2)c(OC)c1
IC50 (second compound 0.0316 µM): 123 nM
IC50 (second compound 0.1 µM): 97.3 nM
IC50 (second compound 0.316 µM): 28.9 nM
IC50 (second compound 1 µM): 7.67 nM
IC50 (second compound 3.16 µM): 3.86 nM
IC50 (second compound 10 µM): < 3.16 nM
viability, T/C [25]: 112%
viability, T/C [26]: 96.5%
viability, T/C [1]: 72.6%
viability, T/C [2]: 54.6%
viability, T/C [3]: 35.4%
viability, T/C [4]: 25.2%
viability, T/C [27]: 112%
viability, T/C [28]: 96.1%
viability, T/C [5]: 71.8%
viability, T/C [6]: 48.7%
viability, T/C [7]: 33.8%
viability, T/C [8]: 21.2%
viability, T/C [29]: 70.2%
viability, T/C [30]: 62.8%
viability, T/C [9]: 47.7%
viability, T/C [10]: 35.5%
viability, T/C [11]: 22.9%
viability, T/C [12]: 14.4%
viability, T/C [31]: 59.1%
viability, T/C [32]: 46.5%
viability, T/C [13]: 33.8%
viability, T/C [14]: 19.7%
viability, T/C [15]: 15.6%
viability, T/C [16]: 13.3%
viability, T/C [33]: 51.2%
viability, T/C [34]: 41.9%
viability, T/C [17]: 29.5%
viability, T/C [18]: 20.7%
viability, T/C [19]: 13.5%
viability, T/C [20]: 11.7%
viability, T/C [35]: 46.6%
viability, T/C [36]: 40.4%
viability, T/C [21]: 28.9%
viability, T/C [22]: 18.4%
viability, T/C [23]: 12.7%
viability, T/C [24]: 10.5%

From PubChem BioAssay AID2060600 (Molecular Pharmacology Branch, DTP, NCI, 2025)
